Experiment [1] deals with phosphorylation of pRb at the Ser780 site in JeKo-1 mantle cell lymphoma cells. The experiment is described as follows: CDK4 cellular assay: ELISA of pRb phosphorylation at Ser780 in JeKo-1 cells. The experiment is classed as cell-based. Conditions: Homo sapiens.
A further experiment addresses CDK4/cyclin D1 (Homo sapiens (Human), UniProt P11802). The experiment is described as follows: CDK4/cyclin D1 enzymatic activity assay (TR-FRET, phosphorylation of pRb at Ser780). It is filed as biochemical. The settings on record: 0.3 nM CDK4/cyclin D1, 150 nM biotin-pRb (773-924), 3 μM ATP, 60 min at 22° C.; read-out: Biochemical CDK4 enzyme IC50. A digest of the protocol: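 Phosphorylation at pRb Ser780, detected by TR-FRET, gave IC50s and kinetics. Enzyme: baculovirus/Sf21-expressed human CDK4/cyclin D1. ATP at 3 μM initiated the reaction; EDTA (pH 8.0) stopped it after 60 min at 22° C.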

A further experiment concerns the target CDK1/cyclin B (Homo sapiens (Human), UniProt P06493). The experiment is described as follows: CDK1/cyclin B enzymatic activity assay (IMAP-FP). The experiment is classed as biochemical. The settings on record: 100 nM Tamra Histone-H1 peptide, 20 μM ATP, 120 min at room temperature, read-out: Biochemical CDK1 enzyme IC50. From the text: CDK1/Cyclin B Enzymatic Activity Assay
A 384-well microtiter IMAP-FP™ (Molecular Devices Trade Mark Technology) endpoint assay was used for CDK1/cyclin B kinase activity measurements. The same assay was used for IC50 determination of small molecule inhibitors.

Where [2] appears, read: JeKo-1 cells, p-pRb % inhibition adjusted with total pRb levels, read-out: Normalized cellular ppRb inhibition IC50.
Setting [3] is: JeKo-1 cells, p-pRb Ser780 ELISA, non-normalized, read-out: Cellular ppRb inhibition IC50.
Where [4] appears, read: JeKo-1, JeKo-1 cells, p-pRb % inhibition adjusted with total pRb levels, read-out: Normalized cellular ppRb inhibition IC50.
Where [5] appears, read: JeKo-1, JeKo-1 cells, p-pRb Ser780 ELISA, non-normalized, read-out: Cellular ppRb inhibition IC50.

Read-outs that look alike come from different tables or passages of the source.

Chain of CDK1/cyclin B (P06493 whole entry, species assumed): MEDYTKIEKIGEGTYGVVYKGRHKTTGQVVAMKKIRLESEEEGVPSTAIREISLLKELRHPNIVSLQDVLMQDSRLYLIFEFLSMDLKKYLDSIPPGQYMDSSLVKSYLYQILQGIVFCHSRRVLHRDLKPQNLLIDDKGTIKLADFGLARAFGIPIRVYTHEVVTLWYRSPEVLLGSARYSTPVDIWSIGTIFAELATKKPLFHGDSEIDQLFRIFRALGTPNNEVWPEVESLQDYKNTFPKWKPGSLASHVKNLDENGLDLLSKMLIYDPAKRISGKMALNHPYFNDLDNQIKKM
Chain of CDK1/cyclin B (P14635 whole entry partner, species assumed): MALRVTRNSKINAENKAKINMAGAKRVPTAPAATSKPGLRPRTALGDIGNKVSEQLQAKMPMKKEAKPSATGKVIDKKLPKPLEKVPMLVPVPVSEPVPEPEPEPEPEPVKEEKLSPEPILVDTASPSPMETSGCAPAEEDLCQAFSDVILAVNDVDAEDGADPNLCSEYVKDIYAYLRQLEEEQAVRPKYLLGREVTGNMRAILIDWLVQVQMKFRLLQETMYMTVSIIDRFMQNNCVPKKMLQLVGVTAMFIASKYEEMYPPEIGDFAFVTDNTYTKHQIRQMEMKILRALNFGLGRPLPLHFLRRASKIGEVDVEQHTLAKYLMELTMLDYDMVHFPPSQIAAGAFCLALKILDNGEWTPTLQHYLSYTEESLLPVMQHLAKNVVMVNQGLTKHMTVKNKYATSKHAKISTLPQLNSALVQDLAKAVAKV
Chain of CDK4/cyclin D1 (P11802 whole entry): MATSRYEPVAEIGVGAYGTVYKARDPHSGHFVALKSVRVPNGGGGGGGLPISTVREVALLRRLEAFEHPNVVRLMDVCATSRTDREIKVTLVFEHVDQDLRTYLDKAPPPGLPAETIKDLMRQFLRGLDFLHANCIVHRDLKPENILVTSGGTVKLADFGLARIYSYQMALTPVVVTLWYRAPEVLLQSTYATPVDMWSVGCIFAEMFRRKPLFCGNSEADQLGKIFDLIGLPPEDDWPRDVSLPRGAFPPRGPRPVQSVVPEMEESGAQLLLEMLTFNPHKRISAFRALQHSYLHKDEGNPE
Chain of CDK4/cyclin D1 (P24385 whole entry partner): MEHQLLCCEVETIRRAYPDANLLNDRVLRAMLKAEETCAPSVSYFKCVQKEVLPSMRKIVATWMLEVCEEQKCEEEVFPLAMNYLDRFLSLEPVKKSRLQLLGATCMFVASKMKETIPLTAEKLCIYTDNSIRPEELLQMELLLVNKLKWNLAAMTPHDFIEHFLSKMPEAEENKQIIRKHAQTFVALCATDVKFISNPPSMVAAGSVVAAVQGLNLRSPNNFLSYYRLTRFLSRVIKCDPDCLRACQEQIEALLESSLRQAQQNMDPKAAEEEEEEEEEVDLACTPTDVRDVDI

Broadly, the IC50 is the concentration that inhibits the measured activity by half. In the case of `CN(C)C(=O)c1cc2cnc(Nc3ccc(N4CC5(CC6CCC(C5)N6)OC4=O)cn3)nc2n1C1CCCC1` [Example 101, 7-cyclopentyl-N,N-dimethyl-2-(5-((1R,3r, 5S)-2′-oxo-8-azaspiro[bicyclo[3.2.1]octane-3,5′-oxazolidine]-3′-yl)pyridin-2-ylamino)-7H-pyrrolo[2,3-d]pyrimidine-6-carboxamide], the IC50 in experiment [1] (setting [2]) was 110 nM; in experiment [1] (setting [3]), 58 nM; at CDK4/cyclin D1, 20 nM; on CDK1/cyclin B ([…] CDK1/cyclin B), above 15000 nM.

Regarding `CN(C)C(=O)c1cc2cnc(Nc3ccc(C(=O)N4CC5C[C@]5(N)C4)cn3)nc2n1C1CCCC1` (single isomer, unassigned) [Example 16], the IC50 in experiment [1] (setting [4]) was 233 nM; in experiment [1] (setting [5]), 92 nM; at CDK4/cyclin D1, 15 nM; on CDK1/cyclin B (0.25 nM CDK1/cyclin B), above 15000 nM.

As to `CN(C)C(=O)c1cc2cnc(Nc3ccc(N4CCC5(CCCN5)C4=O)cn3)nc2n1C1CCCOC1` (stereo not shown) [Example 121, N,N-dimethyl-2-(5-(6-oxo-1,7-diazaspiro[4.4]nonan-7-yl)pyridin-2-ylamino)-7-(tetrahydro-2H-pyran-3-yl)-7H-pyrrolo[2,3-d]pyrimidine-6-carboxamide], the IC50 was 199 to 791 nM in experiment [1] (setting [2]), 184 to 489 nM in experiment [1] (setting [3]), 79 to 107 nM on CDK4/cyclin D1 and above 15000 nM at CDK1/cyclin B ([…] CDK1/cyclin B).

With `CN(C)C(=O)c1cc2cnc(Nc3ccc(N4CC5CCC(C4)N5)cn3)nc2n1C1CCCC1` [Example 112, 7-Cyclopentyl-2-[5-(3,8-diaza-bicyclo[3.2.1]oct-3-yl)pyridin-2-ylamino]-7H-pyrrolo[2,3-d]pyrimidine-6-carboxylic acid dimethylamide], the IC50 in experiment [1] (setting [2]) was 231 nM; in experiment [1] (setting [3]), 92 nM; at CDK4/cyclin D1, 11 to 34 nM; at CDK1/cyclin B ([…] CDK1/cyclin B), above 15000 nM.

In the case of `CN(C)C(=O)c1cc2cnc(Nc3ccc(C(=O)N4CC5CCC(C4)N5)cn3)nc2n1-c1cccc(C(C)(C)C)c1` [Example 54, 7-(3-tert-Butyl-phenyl)-2-[5-(3,8-diaza-bicyclo[3.2.1]octane-3-carbonyl)-pyridin-2-ylamino]-7H-pyrrolo[2,3-d]pyrimidine-6-carboxylic acid dimethylamide], the IC50 in experiment [1] (setting [4]) is 8 to 47 nM; in experiment [1] (setting [5]) it was 6 to 33 nM; on CDK4/cyclin D1, 3 nM; at CDK1/cyclin B ([…] CDK1/cyclin B), 1990 nM.

For the compound `CN(C)C(=O)c1cc2cnc(Nc3ccc(C(=O)N4CC5CCC(C4)C5(C)O)cn3)nc2n1C1CCCCCC1` (stereo not shown) [Example 6, 7-cycloheptyl-2-(5-(8-hydroxy-8-methyl-3-azabicyclo[3.2.1]octane-3-carbonyl)pyridin-2-ylamino)-N,N-dimethyl-7H-pyrrolo[2,3-d]pyrimidine-6-carboxamide], the IC50 in experiment [1] (setting [2]) was 889 nM; in experiment [1] (setting [3]), 148 nM; on CDK4/cyclin D1, 187 nM; at CDK1/cyclin B ([…] CDK1/cyclin B) it was above 15000 nM.

For `CN(C)C(=O)c1cc2cnc(Nc3ccc(C(=O)N4CC5CCC4C5O)cn3)nc2n1C1CCCC1` (stereo not shown) [Example 26], the IC50 was 388 nM in experiment [1] (setting [2]), 325 nM in experiment [1] (setting [3]), 38 nM at CDK4/cyclin D1 and above 15000 nM at CDK1/cyclin B ([…] CDK1/cyclin B).

As for `CN(C)C(=O)c1cc2cnc(Nc3ccc(C(=O)N4CC5CCC(C4)C5O)cn3)nc2n1C1CCCC1` [Example 33, 7-cyclopentyl-2-(5-((1R,5S,8r)-8-hydroxy-3-azabicyclo[3.2.1]octane-3-carbonyl)pyridin-2-ylamino)-N,N-dimethyl-7H-pyrrolo[2,3-d]pyrimidine-6-carboxamide], the IC50 in experiment [1] (setting [2]) is 430 to 1300 nM; in experiment [1] (setting [3]), 377 to 919 nM; at CDK4/cyclin D1, 94 to 144 nM; on CDK1/cyclin B ([…] CDK1/cyclin B) it was above 15000 nM.

With `CN(C)C(=O)c1cc2cnc(Nc3ccc(N4CC5CC4CN5)cn3)nc2n1C1CCCC1` (stereo not shown) [Example 111, 7-Cyclopentyl-2-[5-(2,5-diaza-bicyclo[2.2.1]hept-2-yl)-pyridin-2-ylamino]-7H-pyrrolo[2,3-d]pyrimidine-6-carboxylic acid dimethylamide], the IC50 in experiment [1] (setting [2]) worked out at 452 nM; in experiment [1] (setting [3]), 371 nM; at CDK4/cyclin D1, 41 nM; on CDK1/cyclin B ([…] CDK1/cyclin B), 9170 nM.

For `CN(C)C(=O)c1cc2cnc(Nc3ccc(N4CC5(CCCNCC5)OC4=O)cn3)nc2n1C1CCCC1` (stereo not shown) [Example 103, 7-cyclopentyl-N,N-dimethyl-2-(5-(2-oxo-1-oxa-3,8-diazaspiro[4.6]undecan-3-yl)pyridin-2-ylamino)-7H-pyrrolo[2,3-d]pyrimidine-6-carboxamide], the IC50 was 64 to 169 nM in experiment [1] (setting [2]), 24 to 72 nM in experiment [1] (setting [3]), 17 nM on CDK4/cyclin D1 and above 15000 nM on CDK1/cyclin B ([…] CDK1/cyclin B).

For the compound `CN(C)C(=O)c1cc2cnc(Nc3ccc(N4CCN5CCC[C@@H]5C4=O)cn3)nc2n1C1CCCC1` [Example 147], the IC50 was 310 nM in experiment [1] (setting [4]), 257 nM in experiment [1] (setting [5]), 27 nM at CDK4/cyclin D1 and above 15000 nM at CDK1/cyclin B ([…] CDK1/cyclin B).

Regarding `CN(C)C(=O)c1cc2cnc(Nc3ccc(N4CC5CCC(CC4=O)N5)cn3)nc2n1C1CCCCC1` (stereo not shown) [Example 131, 7-cyclohexyl-N,N-dimethyl-2-(5-(4-oxo-3,9-diazabicyclo[4.2.1]nonan-3-yl)pyridin-2-ylamino)-7H-pyrrolo[2,3-d]pyrimidine-6-carboxamide], the IC50 was 24 nM in experiment [1] (setting [4]), 14 nM in experiment [1] (setting [5]), 4 nM on CDK4/cyclin D1 and above 15000 nM at CDK1/cyclin B ([…] CDK1/cyclin B).

As to `CN(C)C(=O)c1cc2cnc(Nc3ccc(C(=O)N4C[C@@H]5CN[C@@H](C5)C4)cn3)nc2n1C1CCCC1` [Example 10, 7-Cyclopentyl-2-[5-((1S,5S)-3,6-diaza-bicyclo[3.2.1]octane-3-carbonyl)-pyridin-2-ylamino]-7H-pyrrolo[2,3-d]pyrimidine-6-carboxylic acid dimethylamide], the IC50 in experiment [1] (setting [4]) came to 25 nM; in experiment [1] (setting [5]) it was 21 nM; on CDK4/cyclin D1 it was 5 nM; at CDK1/cyclin B ([…] CDK1/cyclin B), 4140 nM.

As for `CN(C)C(=O)c1cc2cnc(Nc3ccc(N4C[C@H]5CC[C@@H](CC4=O)N5)cn3)nc2n1-c1ccccc1` [Example 130, 2-[5-((1R,6S)-4-oxo-3,9-diaza-bicyclo[4.2.1]non-3-yl)-pyridin-2-ylamino]-7-phenyl-7H-pyrrolo[2,3-d]pyrimidine-6-carboxylic acid dimethylamide], the IC50 was 22 to 45 nM in experiment [1] (setting [4]), 19 to 26 nM in experiment [1] (setting [5]), 9 nM on CDK4/cyclin D1 and above 15000 nM on CDK1/cyclin B ([…] CDK1/cyclin B).

As to `CN(C)C(=O)c1cc2cnc(Nc3ccc(N4CCN5CCCC5C4=O)cn3)nc2n1C1CCCCC1` (stereo not shown) [Example 98, 7-Cyclohexyl-2-[5-(1-oxo-hexahydro-pyrrolo[1,2-a]pyrazin-2-yl)-pyridin-2-ylamino]-7H-pyrrolo[2,3-d]pyrimidine-6-carboxylic acid dimethylamide], the IC50 in experiment [1] (JeKo-1, read-out: Cellular ppRb inhibition IC50) is 136 to 266 nM; in experiment [1] (JeKo-1, read-out: Normalized cellular ppRb inhibition IC50), 291 to 887 nM; at CDK4/cyclin D1 it was 16 to 98 nM; on CDK1/cyclin B ([…] CDK1/cyclin B), above 15000 nM.

As for `CSCC[C@@H](N)C(=O)N1C2CCC1CN(C(=O)c1ccc(Nc3ncc4cc(C(=O)N(C)C)n(C5CCCC5)c4n3)nc1)C2` [Example 59, 2-{5-[8-((R)-2-Amino-4-methylsulfanyl-butyryl)-3,8-diaza-bicyclo[3.2.1]octane-3-carbonyl]-pyridin-2-ylamino}-7-cyclopentyl-7H-pyrrolo[2,3-d]pyrimidine-6-carboxylic acid dimethylamide], the IC50 in experiment [1] (setting [2]) is above 10000 nM; in experiment [1] (setting [3]) it was 2500 nM; on CDK4/cyclin D1, 8 nM; on CDK1/cyclin B ([…] CDK1/cyclin B) it was above 15000 nM.

The values above are taken from patent US8957074B2 (Novartis AG, priority 2010, dated 2015).
